For one substance, body weight gain and IC50 results are on record in patent publication US20250163168A1, “NOVEL ANTIBODIES AND ANTIBODY CONJUGATES FOR THE TREATMENT OF METABOLIC DISORDERS” (PFIZER INC., priority 2023, published 2025).

The test system of assay [1] is diet induced obese (DIO) hGIPR mice. Kind of assay: Body weight gain prevention and food intake in DIO hGIPR mice on high fat diet. Type of assay: in vivo, mouse. Conditions: 1 mg/kg s.c. twice a week, 60% high fat diet, compared to IgG control (FIG. 6). The text has this: Male hGIPR mice between 18-21 weeks of age were utilized which had been on 60% high fat diet (D12492, Research Diets) for 14 weeks prior to the start of the study and were singly housed, maintained on a 12-hour light/12-hour dark cycle, and received food and water ad libitum. Prior to the start of the study, mice were randomized into each group based on body weight. […] Mice were continued on 60% high fat diet for the duration of the study. In FIG. 2, number of animals per group=10; Data are presented as the mean and error bars are SEM.
To determine statistical significance for the body weight endpoint, a generalized least squares linear model with appropriate fixed effects and correlation and variance structure are used for BW outcomes. All residuals were evaluated for meeting the normality assumption with the Shapiro-Wilks Test and Q-Q Plots and the sphericity and homoscedasticity assumption by the residual plots and Bartlett's test. […]
Male hGIPR mice between 18-21 weeks of age were utilized which had been on 60% high fat diet (D12492, Research Diets) for 14 weeks prior to the start of the study and were singly housed, maintained on a 12 hour light/12 hour dark cycle, and received food and water ad libitum. […] Percent change in body weight at each time point was calculated based on difference from pre-dose weight, and 24 hour food intake was measured during week 3. […]

For a further assay, the target named is T1, human GIPR (hGIPR) (Homo sapiens, UniProt P48546).
T1 sequence (P48546 22-466): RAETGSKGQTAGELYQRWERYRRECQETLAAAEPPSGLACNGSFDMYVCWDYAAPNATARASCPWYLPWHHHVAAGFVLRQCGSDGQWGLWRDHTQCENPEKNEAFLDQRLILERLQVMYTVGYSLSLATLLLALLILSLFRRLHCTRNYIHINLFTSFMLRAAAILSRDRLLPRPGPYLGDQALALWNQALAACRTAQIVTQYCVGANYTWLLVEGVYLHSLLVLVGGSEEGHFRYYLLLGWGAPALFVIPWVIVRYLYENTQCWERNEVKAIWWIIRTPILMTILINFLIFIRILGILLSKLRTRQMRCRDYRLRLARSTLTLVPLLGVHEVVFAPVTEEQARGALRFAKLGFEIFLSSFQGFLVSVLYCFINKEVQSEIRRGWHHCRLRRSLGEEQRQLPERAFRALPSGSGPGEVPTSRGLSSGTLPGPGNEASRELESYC
Put plainly: Functional in vitro GIPR antagonist potency assay (human GIPR-CHO cAMP, HTRF). The class given is cell-based. Conditions: CHO-K1 cells stably expressing hGIPR, 1.5 nM hGIP. The text has this:
Following agonist activation, hGIPR associates with the G-protein complex causing the Gas subunit to exchange bound Guanosine diphosphate (GDP) for guanosine triphosphate (GTP), followed by dissociation of the Gas-GTP complex. The activated Gas subunit can couple to downstream effectors to regulate the levels of second messengers or cAMP within the cell. Thereby, determination of intracellular cAMP levels allows for pharmacological characterization. Intracellular cAMP levels were quantified using a homogenous assay utilizing the Homogeneous Time Resolved Fluorescence (HTRF) technology from Perkin Elmer. The method was a competitive immunoassay between native cAMP produced by the cells and cAMP labelled with the acceptor dye, d2. The two entities competed for binding to a monoclonal anti-cAMP antibody labeled with cryptate. […] G2269) in 1× cAMP assay buffer was added to the assay plate (5 μL/well) at 4.5 nM (final concentration of 1.5 nM) and incubated for another 30 minutes at 37° C., after which intracellular cAMP levels were quantified with Cisbio cAMP-GS Dynamic kit (#62AM4PEC) with dilution of 20× of D2 and Eu in lysis buffer, mixed 1:1 by volume, and added 15 ul/well into plate, with a quick spin. […] The plate was then read on an Envision plate reader. Data were analyzed using the ratio of fluorescence intensity at 620 and 665 nm for each well.

For “2G10: fully human monoclonal anti-GIPR antagonist antibody portion of AMG 133 (maridebart cafraglutide); benchmark antibody [reference compound]”, in assay [1], the body weight gain result is “reduced body weight gain”. This substance returned an IC50 with human GIPR (hGIPR) of 30.4 nM.
